# In patent US12419869B2, “Methods of treating multiple sclerosis” (Vanda Pharmaceuticals Inc., priority 2021, dated 2025):
# Columns and labels:
# Assay type in all cases: in vivo, human
# [1] = tested on: adult subjects with relapsing MS; experiment: EDSS, time to first 12-week / 24-week confirmed disability accumulation (CDA)
# Description: (§1) A 12-week CDA is an increase of at least 1.5 in EDSS for subjects with a baseline EDSS score of 0.0 or an increase of at least 1.0 in EDSS for subjects with a baseline EDSS score of 1.0 to 5.0, or an increase of at least 0.5 in EDSS for subjects with a baseline EDSS score≥5.5 which is to be confirmed after 12 weeks.
# All EDSS measurements (with or without relapse, at a scheduled or unscheduled visit) were used to determine the onset of disability accumulation. However, EDSS scores used for confirmation of disability accumulation were obtained at a scheduled visit (i.e., unscheduled visits cannot be used as confirmatory visits) outside any ongoing relapse. In this context, relapse duration is defined as period between start and end dates if available and limited to 90 days from onset if end date is not available or duration is longer than 90 days.
# In order to confirm that the EDSS increase is persistent, all EDSS measurements between the onset and the 12-week EDSS confirmation (minus 7-day visit time-window) need to show an increase in EDSS, meeting the criteria for accumulation of disability as defined above.
# as §1, with “24-week” for “12-week”, “24” for “12”
# The primary endpoint was the annualized relapse rate (ARR) over the study period. Additional outcome measures included: 1) the number of new Gd-enhancing T1 lesions from baseline to Week 108, 2) the number of new or enlarging T2 lesions (without double-counting of lesions) from baseline to Week 108, and 3) the time to 3-month and 6-month confirmed disability progression. A confirmed disability progression was defined as an increase of at least 1.5 in EDSS for patients with a baseline EDSS score of 0, an increase of at least 1.0 in EDSS for patients with a baseline EDSS score of 1.0 to 5.0, or an increase of at least 0.5 in EDSS for patients with a baseline EDSS score at least 5.5, which was confirmed after 3 months and 6 months.
# [2] = tested on: adult subjects with relapsing MS; experiment: Pulmonary function (percent predicted FEV1), Study 1
# Procedure: In Study 1, the reduction from baseline in percent predicted FEV1 at 2 years was 8.3% in PONVORY-treated patients compared to 4.4% in patients receiving teriflunomide 14 mg. In Study 1, 7 patients discontinued PONVORY because of pulmonary adverse events. There is insufficient information to determine the reversibility of the decrease in FEV1 or FVC after treatment discontinuation. PONVORY should be used with caution in patients with severe respiratory disease (i.e., pulmonary fibrosis, asthma, and chronic obstructive pulmonary disease). Spirometric evaluation of respiratory function should be performed during therapy with PONVORY if clinically indicated.
# [3] = tested on: adult subjects with relapsing MS; experiment: Treatment-emergent adverse events and premature treatment discontinuation, phase III study (Study 1)
# Procedure: A total of 1438 MS patients have received PONVORY at doses of at least 2 mg daily. These patients were included in Study 1 (2-year active-controlled versus teriflunomide 14 mg) [see Clinical Studies (14)] and in a Phase 2 (6-month placebo-controlled) study in patients with MS and the uncontrolled extension studies.
structure (smiles),measurement,setting,value
"C/C(O)=C(\C#N)C(=O)Nc1ccc(C(F)(F)F)cc1 [Teriflunomide, reference compound]",Proportion of Patients with 3-month Confirmed Disability Progression,[1]; Kaplan-Meier estimates at Week 108,13.2%
same,Subjects with 24-week CDA,[1]; up to EOS,9.9%
same,Reduction from baseline in percent predicted FEV1 at 2 years,[2],4.4%
same,Discontinuation reason: Death,[3]; Safety Set,(0.4) %
same,Subjects who prematurely discontinued study treatment,[3]; Safety Set,(16.4) %
same,Subjects with at least one Fatal AE,[3]; Safety Set,(0.4) %
same,Day 1 AESI Electrocardiogram QT prolonged,"[3]; human, in vivo",(0.2) %
same,Day 1 AESI Presyncope,"[3]; human, in vivo",(02) %
same,"AE leading to discontinuation, SOC Blood and lymphatic system disorders","[3]; human, in vivo, 2 year",(0.4) %
same,"AE leading to discontinuation, SOC Cardiac disorders","[3]; human, in vivo, 2 year",(0.4) %
same,"AE leading to discontinuation, SOC Gastrointestinal disorders","[3]; human, in vivo, 2 year",(0.7) %
same,"AE leading to discontinuation, SOC General disorders and administration site conditions","[3]; human, in vivo, 2 year",(0.4) %
same,"AE leading to discontinuation, SOC Hepatobiliary disorders","[3]; human, in vivo, 2 year",(0.4) %
same,"AE leading to discontinuation, SOC Investigations","[3]; human, in vivo, 2 year",(1.8) %
same,"AE leading to discontinuation, SOC Musculoskeletal and connective tissue disorders","[3]; human, in vivo, 2 year",(0.2) %
same,"AE leading to discontinuation, SOC Neoplasms benign, malignant and unspecified (incl cysts and polyps)","[3]; human, in vivo, 2 year",(0.2) %
same,"AE leading to discontinuation, SOC Nervous system disorders","[3]; human, in vivo, 2 year",(0.7) %
same,"AE leading to discontinuation, SOC Pregnancy, puerperium and perinatal conditions","[3]; human, in vivo, 2 year",(0.5) %
same,"AE leading to discontinuation, SOC Psychiatric disorders","[3]; human, in vivo, 2 year",(0.2) %
same,"AE leading to discontinuation, SOC Reproductive system and breast disorders","[3]; human, in vivo, 2 year",(0.2) %
same,"AE leading to discontinuation, SOC Skin and subcutaneous tissue disorders","[3]; human, in vivo, 2 year",(0.4) %
same,"AE leading to discontinuation, SOC Social circumstances","[3]; human, in vivo, 2 year",(0.2) %
same,"AE leading to discontinuation, SOC Surgical and medical procedures","[3]; human, in vivo, 2 year",(0.2) %
same,AESI Effect on heart rate and rhythm (including hypotension),"[3]; human, in vivo, 2 year",(4.2) %
same,AESI Macular edema,"[3]; human, in vivo, 2 year",(0.2) %
same,AESI Non-skin malignancy,"[3]; human, in vivo, 2 year",(0.2) %
same,AESI Skin malignancy,"[3]; human, in vivo, 2 year",(0.2) %
same,"Discontinuation reason: Physician decision, Adverse event","[3]; human, in vivo, 2 year",(1.6) %
same,Discontinuation reason: Pre-specified study treatment discontinuation criteria,"[3]; human, in vivo, 2 year",(2.8) %
same,"Discontinuation reason: Subject decision, Tolerability related","[3]; human, in vivo, 2 year",(0.9) %
same,Incidence of basal cell carcinoma,"[3]; human, in vivo, 2 year",0.2%
same,Overall rate of infections,"[3]; human, in vivo, 2 year",52.1%
same,Subjects discontinued due to AEs or tolerability related reasons,"[3]; human, in vivo, 2 year",2.5%
same,Subjects with at least one Drug-Related AE,"[3]; human, in vivo, 2 year",(42.0) %
same,Subjects with at least one Severe AE,"[3]; human, in vivo, 2 year",(4.6) %
same,TEAE ALT increased,"[3]; human, in vivo, 2 year",9.4%
same,TEAE headache,"[3]; human, in vivo, 2 year",12.7%
same,TEAE nasopharyngitis,"[3]; human, in vivo, 2 year",16.8%
same,TEAE upper respiratory tract infection,"[3]; human, in vivo, 2 year",10.4%
same,Adverse reaction: C-reactive protein increased,"[3]; human, in vivo, 2 years",1%
same,Adverse reaction: Cough,"[3]; human, in vivo, 2 years",2%
same,Adverse reaction: Dizziness,"[3]; human, in vivo, 2 years",3%
same,Adverse reaction: Dyspnea,"[3]; human, in vivo, 2 years",1%
same,Adverse reaction: Hepatic transaminase elevation,"[3]; human, in vivo, 2 years",12%
same,Adverse reaction: Hypercholesterolemia,"[3]; human, in vivo, 2 years",1%
same,Adverse reaction: Hypertension,"[3]; human, in vivo, 2 years",9%
same,Adverse reaction: Pain in extremity,"[3]; human, in vivo, 2 years",3%
same,Adverse reaction: Pyrexia,"[3]; human, in vivo, 2 years",1%
same,Adverse reaction: Somnolence,"[3]; human, in vivo, 2 years",2%
same,Adverse reaction: Urinary tract infection,"[3]; human, in vivo, 2 years",5%
same,Adverse reaction: Vertigo,"[3]; human, in vivo, 2 years",1%
same,AESI Macular edema,[3]; in vivo,none
same,Discontinuation reason: Lost to follow-up,[3]; in vivo,(0.5) %
same,Discontinuation reason: Physician decision,[3]; in vivo,(4.1) %
same,"Discontinuation reason: Physician decision, Lack of efficacy/treatment failure",[3]; in vivo,(1.8) %
same,"Discontinuation reason: Physician decision, Other",[3]; in vivo,(0.7) %
same,Discontinuation reason: Subject decision,[3]; in vivo,(8.7) %
same,"Discontinuation reason: Subject decision, Efficacy related",[3]; in vivo,(2.5) %
same,"Discontinuation reason: Subject decision, Not known",[3]; in vivo,(0.7) %
same,"Discontinuation reason: Subject decision, Other",[3]; in vivo,(4.6) %
